Results published in patent publication US20230167088A1, “1-PYRAZINYLPYRAZOLYL-3-OXYALKYL ACIDS AND THEIR DERIVATIVES, AND THEIR USE FOR CONTROL OF UNDESIRED PLANT GROWTH” (BAYER AKTIENGESELLSCHAFT, priority 2020, published 2023).

Experiments:
[1] = test system: LOLRI; test: Herbicidal post-emergence action 1a (greenhouse pots, visual rating); assay type: in vivo, Lolium rigidum; settings: rated visually about 3 weeks after treatment, 100% = plants have died, 0% = like control plants
Summary of the method: (§1)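 Weeds and crops sown in sandy loam in greenhouse pots were sprayed post-emergence at the one-leaf stage (2–3 weeks after sowing) with WP or EC formulations plus 0.5% additive at 600 l/ha water, 320 and/or 80 g/ha. About 3 weeks later damage was rated visually against untreated controls (0% = no effect, 100% = dead).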

[2] = test system: AMARE; test: as above; assay type: in vivo, Amaranthus retroflexus; settings: visual rating about 3 weeks after treatment
Summary of the method: as §1

[3] = test system: POLCO; test: as above; assay type: in vivo, Polygonum convolvulus; settings: visual rating about 3 weeks after treatment
Summary of the method: as §1

[4] = test system: VIOTR; test: as above; assay type: in vivo, Viola tricolor; settings: visual rating about 3 weeks after treatment
Summary of the method: as §1

[5] = test system: VERPE; test: as above; assay type: in vivo, Veronica persica; settings: visual rating about 3 weeks after treatment
Summary of the method: as §1

[6] = test system: ALOMY; test: Herbicidal pre-emergence action 2a (greenhouse pots, visual scoring); assay type: in vivo, Alopecurus myosuroides; settings: dosage 320 g/ha, visual scoring after about 3 weeks
Summary of the method: (§2)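 Visual scoring after roughly 3 weeks, as percent effect relative to untreated pots (0% = like control, 100% = dead). Seeds were covered with soil, then the surface received aqueous WP/EC suspension or emulsion (0.5% additive, 600 l/ha) at 320 and/or 80 g/ha.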

[7] = test system: ECHCG; test: as above; assay type: in vivo, Echinochloa crus-galli; settings: dosage 320 g/ha, visual scoring after about 3 weeks
Summary of the method: as §2

[8] = test system: LOLRI; test: as above; assay type: in vivo, Lolium rigidum; settings: dosage 320 g/ha, visual scoring after about 3 weeks vs untreated controls
Summary of the method: as §2

[9] = test system: AMARE; test: as above; assay type: in vivo, Amaranthus retroflexus; settings: dosage 320 g/ha, visual scoring after about 3 weeks vs untreated controls
Summary of the method: as §2

[10] = test system: MATIN; test: Herbicidal pre-emergence action 2b (doubly sown, 1280 g/ha); assay type: in vivo, Matricaria inodora; settings: doubly sown pots, dosage 1280 g/ha, visual scoring after about 3 weeks
Summary of the method: (§3)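 Read-out: visual percentage damage relative to untreated controls, scored after roughly 3 weeks in the greenhouse, where 100% means plants died and 0% equals control. Seeds were sown two species per pot in sandy loam and covered before the compounds, formulated as WP or EC with 0.5% additive, were sprayed onto the soil at 600 L/ha.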

[11] = test system: STEME; test: as above; assay type: in vivo, Stellaria media; settings: doubly sown pots, dosage 1280 g/ha, visual scoring after about 3 weeks
Summary of the method: as §3

[12] = test system: harmful plants; test: Herbicidal post-emergence action 1a, summary across species; assay type: in vivo; settings: Tables A1 to A15 (320 g/ha and/or 80 g/ha)
Method: a) Seeds of monocotyledonous and dicotyledonous weeds and crop plants are placed in sandy loam in plastic or organic plant pots, covered with soil and cultivated in a greenhouse under controlled growth conditions. 2 to 3 weeks after sowing, the test plants are treated at the one-leaf stage. The compounds of the invention, formulated in the form of wettable powders (WP) or as emulsion concentrates (EC), are then sprayed onto the green parts of the plants as aqueous suspension or emulsion with addition of 0.5% additive at a water application rate of 600 1/ha (converted). After the test plants have been kept in the greenhouse under optimum growth conditions for about 3 weeks, the activity of the preparations is rated visually in comparison to untreated controls. For example, 100% activity=the plants have died, 0% activity=like control plants.
Tables A1 to A15 below show the effects of selected compounds of the general formula (I) according to Tables 1 and 2 on various harmful plants and an application rate corresponding to 320 g/ha and/or 80 g/ha, which were obtained by the experimental procedure mentioned above.
For example, compound nos. I-05, I-07, I-08, I-10, I-12, I-16, I-17, I-22, I-36, I-37, I-39 and I-40 in the post-emergence method have very good action (80% to 100% herbicidal activity) against harmful plants such as Alopecurus myosuroides, Amaranthus retroflexus, Avena fatua, Lolium rigidum, Polygonum convolvulus, Setaria viridis, Veronica persica and Viola tricolor at an application rate of 0.32 kg of active substance per hectare.

Row | Structure (SMILES) | Post-emergence action against LOLRI in % ([1]; Dosage 320 g/ha) [%] | Post-emergence action against AMARE in % ([2]; dosage 320 g/ha) [%] | Post-emergence action against POLCO in % ([3]; dosage 320 g/ha) [%] | Post-emergence action against VIOTR in % ([4]; dosage 80 g/ha) [%] | Post-emergence action against VIOTR in % ([4]; dosage 320 g/ha) [%] | Post-emergence action against VERPE in % ([5]; dosage 320 g/ha) [%] | Pre-emergence action against ALOMY in % [6] [%] | Pre-emergence action against ECHCG in % [7] [%] | Pre-emergence action against LOLRI in % [8] [%] | Pre-emergence action against AMARE in % [9] [%] | Pre-emergence action at 1280 g/ha against MATIN in % [10] [%] | Pre-emergence action at 1280 g/ha against STEME in % [11] [%] | herbicidal efficacy against harmful plants in the case of post-emergence treatment (in words) [12] | Post-emergence action against AMARE in % ([2]; dosage 80 g/ha) [%] | Post-emergence action against POLCO in % ([3]; dosage 80 g/ha) [%] | Post-emergence action against VERPE in % ([5]; dosage 80 g/ha) [%] | Post-emergence action against LOLRI in % ([1]; Dosage 80 g/ha) [%]
1 | COC(=O)[C@@H](C)Oc1nn(-c2cnccn2)c(-c2ccnc(F)c2)c1Br [Example I-34] | 80 | 80 | 100 | 90 | 90 | 80 | 100 | 80 | 100 | 90 | 100 | 100 | good herbicidal efficacy |  |  |  | 
2 | COC(=O)[C@@H](C)Oc1nn(-c2cnccn2)c(-c2ccc(F)nc2)c1Cl [Example I-36] | 90 | 90 | 100 | 90 | 90 | 90 | 100 | 100 | 100 | 100 | 90 | 100 | good herbicidal efficacy | 90 | 90 |  | 
3 | C[C@H](Oc1nn(-c2cnccn2)c(-c2cncc(F)c2)c1Br)C(=O)O [Example I-37] | 90 | 90 | 100 | 80 | 90 | 90 | 100 | 90 | 100 | 90 | 100 | 100 | good herbicidal efficacy |  |  | 80 | 
4 | COC(=O)[C@@H](C)Oc1nn(-c2cnccn2)c(-c2cncc(F)c2)c1Br [Example I-39] | 90 | 80 | 90 | 80 | 90 | 90 | 100 | 100 | 100 | 100 | 100 | 100 | good herbicidal efficacy |  |  | 80 | 90
5 | CCOC(=O)COc1nn(-c2cnccn2)c(-c2ccc(F)nc2)c1Cl [Example I-53] |  |  | 90 | 90 |  |  | 100 | 100 | 80 | 100 | 100 | 100 | good herbicidal efficacy | 80 | 90 | 80 | 
